In PubChem BioAssay (NCI):
Values joined by “and” are separate entries in the source; they are usually repeats but may differ in a detail not shown here. Equal values may be shown once.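 In this assay, cells in 96-well plates receive the compound at five concentrations for 48 hours. Endpoints are linearly interpolated between the surrounding concentrations. Here, GI50 denotes the concentration required for 50% inhibition of growth. TGI marks complete inhibition of growth.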

Assays:
Experiment in all cases: NCI anticancer screen, dose series, 48 h
[1] = tested on: BT-549 breast
[2] = tested on: CCRF-CEM leukemia
[3] = tested on: HS 578T breast
[4] = tested on: MALME-3M melanoma
[5] = tested on: NCI-H522 lung
[6] = tested on: SNB-19 CNS
[7] = tested on: U251 CNS
[8] = tested on: NCI/ADR-RES ovarian
[9] = tested on: OVCAR-8 ovarian
[10] = tested on: SF-268 CNS

| Structure (SMILES) | TGI [1] [µM] | TGI [2] | TGI [3] [µM] | TGI [4] [µM] | TGI [5] [µM] | TGI [6] | TGI [7] | TGI [8] [µM] | TGI [9] | TGI [10] | GI50 [1] | GI50 [2] | GI50 [3] | GI50 [5] | GI50 [9] | GI50 [10] | GI50 [6] | GI50 [7] | GI50 [4] | GI50 [8] |
| --- | --- | --- | --- | --- | --- | --- | --- | --- | --- | --- | --- | --- | --- | --- | --- | --- | --- | --- | --- | --- |
| COC(=O)C1=C(O)C(C(=O)OC)[C@@]2(O)[C@@H](C(=O)OC)[C@H](C)C[C@@H]1[C@@H]2C(=O)OC (stereo not given in full) | > 100 | > 100 µM | 54.1 | > 100 | 50.7 | > 100 µM | 53.2 µM | – | – | – | – | – | – | – | – | – | – | – | – | – |
| O=c1c(-c2ccccc2)c(SCCCN2CCCCC2)n(-c2ccccc2)c(=S)n1-c1ccccc1 | 35.5 | 50.9 µM | > 100 | 37.7 | 41.1 | – | 29.1 µM | 43.8 | 37.9 µM | – | – | – | – | – | – | – | – | – | – | – |
| O=c1[nH]c2ccccc2c2oc3ccccc3c12 | > 100 | > 100 µM | > 100 | > 100 | > 100 | > 100 µM | > 100 µM | > 100 | > 100 µM | > 100 µM | – | – | – | – | – | – | – | – | – | – |
| O=[N+]([O-])c1ccc(N/N=C\c2cc(Br)ccc2O)nc1 | > 100 | > 100 µM | 8.93 | – | 3.23 | 19.8 µM | 3.24 µM | – | 8.86 µM | 4.18 µM | 4.95 µM | 0.314 µM | 2.13 µM | 0.485 µM | 0.415 µM | 0.452 µM | 1.05 µM | 0.736 µM | – | – |
| O=c1c2ccccc2nc2n1CCc1c-2[nH]c2ccccc12 | – | > 100 µM | 50.5 | 73.7 | – | 29.2 µM | 28.6 µM | 61 | 71.8 µM | 75.2 µM | – | 18.9 µM | 22.6 µM | – | – | – | – | – | – | – |
| NCCCCNOCCCN | > 100 | > 100 µM | > 100 | > 100 | > 100 | > 100 µM | > 100 µM | > 100 | > 100 µM | > 100 µM | – | – | – | – | – | – | – | – | – | – |
| COC(=O)C(C)NP(=O)(OCc1cccc(Cn2cnc3c(N)ncnc32)c1)Oc1ccccc1 (stereo not given) | > 100 | > 100 µM | > 100 | > 100 | > 100 | – | > 100 µM | > 100 | > 100 µM | > 100 µM | > 100 µM | 50.5 µM | 32.8 µM | 36 µM | > 100 µM | 58.4 µM | – | > 100 µM | 68.2 µM | > 100 µM |
| CCOC(=O)c1c(Cl)c2c(n1Cc1ccccc1)-c1oncc1CCC2 | – | > 100 µM | – | > 100 | – | > 100 µM | – | > 100 | – | > 100 µM | – | 2.21 µM | – | – | – | > 100 µM | > 100 µM | – | 3.68 µM | 2.83 µM |
| C/C=C(/CCC1NCCc2c1[nH]c1ccccc21)[Si](C)(C)C (stereo not given) | – | > 100 µM and 11.5 µM | – | – | – | > 100 µM and 27.3 µM | > 100 µM and 13.6 µM | – | > 100 µM and 24.4 µM | > 100 µM and 29 µM | – | – | – | – | – | – | > 100 µM and 13.9 µM | – | – | – |
| CC(C)(C)OC(=O)CC(NC(=O)OCc1ccccc1)NC(=O)OC(C)(C)C (stereo not given) | – | – | – | – | – | – | – | – | – | – | 14.2 µg/mL | 35.4 µg/mL | 85.4 µg/mL | 32.9 µg/mL | 57.5 µg/mL | 87.1 µg/mL | 76.2 µg/mL | 67.5 µg/mL | 46 µg/mL | 33.5 µg/mL |
